Source: patent US20170305893A1 (Thomas Helledays Stiftelse for Medicinsk Forskning, priority 2014, published 2017)

target: T1, DCTPP1 (Homo sapiens, UniProt Q9H773); assay: DCTPP1 inhibition assay (malachite green); type: biochemical; conditions: 35 nM DCTPP1, 35 μM dCTP, 20 minutes at 22° C.; read-out: IC50
T1 sequence (Q9H773 1-170): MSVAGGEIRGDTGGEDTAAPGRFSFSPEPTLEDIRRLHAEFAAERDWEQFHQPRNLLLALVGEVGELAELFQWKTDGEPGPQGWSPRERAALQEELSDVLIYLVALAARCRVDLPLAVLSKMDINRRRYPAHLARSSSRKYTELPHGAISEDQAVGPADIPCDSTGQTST
Protocol: DCTPP1 catalyzes the hydrolysis of dCTP to dCMP and PPi. By coupling the reaction to pyrophosphatase added in excess PPi is converted to Pi that can be detected by using the malachite green assay reagent. […] DCTPP1 diluted in assay buffer (100 mM Tris-acetate, 100 mM KCl, 10 mM magnesium acetate, 1 mM DTT and 0.005% Tween 20) fortified with E. coli pyrophosphatase (0.2 U/mL) is added to a final concentration of 35 nM. dCTP diluted in assay buffer is added to a final concentration of 35 μM. The reaction mixture is incubated with shaking for 20 minutes at 22° C. To 100 μl reaction mixture is added […] Malachite green assay reagent (0.095% Malachite green in 17% H2SO4, 1.5% Ammonium molybdate, 0.17% Tween 20) added followed by incubation with shaking for 15 minutes at 22° C. The absorbance of the assay plate is read at 630 nm using a SpectraMax plate reader (Molecular Devices).

Which IC50 does the source give for `Cc1nc2c([N+](=O)[O-])c(Cl)c(Cl)cc2n1Cc1ccc(B(O)O)cc1` [Compound 2.2.44, (4-((5,6-dichloro-2-methyl-4-nitro-1H-benzo[d]imidazol-1-yl)methyl)phenyl)boronic acid] here?
Its IC50 is 47 nM.

With `O=[N+]([O-])c1c(Cl)c(Cl)cc2c1nc(C1CC1)n2Cc1ccc(B(O)O)cc1` [Compound 2.2.45, (4-((5,6-dichloro-2-cyclopropyl-4-nitro-1H-benzo[d]imidazol-1-yl)methyl)phenyl)boronic acid] as the compound, how does the IC50 read?
Its IC50 is 27 nM.

With `Cc1nc2c([N+](=O)[O-])c(Cl)c(Cl)cc2n1Cc1ccc(B2OC(C)(C)C(C)(C)O2)cc1` [Compound 2.2.49, 5,6-dichloro-2-methyl-4-nitro-1-(4-(4,4,5,5-tetramethyl-1,3,2-dioxaborolan-2-yl)benzyl)-1H-benzo[d]imidazole] as the compound, how does the IC50 read?
The IC50 was 30 nM.

Which IC50 does the source give for `Cc1nc2c([N+](=O)[O-])c(Cl)c(Cl)cc2n1Cc1ccc(B2OC(=O)CN(C)CC(=O)O2)cc1` [Compound 2.2.50, 2-(4-((5,6-dichloro-2-methyl-4-nitro-1H-benzo[d]imidazol-1-yl)methyl)phenyl)-6-methyl-1,3,6,2-dioxazaborocane-4,8-dione] here?
The IC50 was 44 nM.

Which IC50 does the source give for `COc1ccc(Cn2c(C(F)(F)F)nc3c([N+](=O)[O-])c(C)c(C)cc32)cc1` [Compound 2.2.58, 1-(4-methoxybenzyl)-5,6-dimethyl-4-nitro-2-(trifluoromethyl)-1H-benzo[d]imidazole] here?
Its IC50 is 14 nM.

Which IC50 does the source give for `Cc1cc2c(nc(C)n2Cc2ccc(B(O)O)cc2)c([N+](=O)[O-])c1C` [Compound 2.2.60, (4-((2,5,6-trimethyl-4-nitro-1H-benzo[d]imidazol-1-yl)methyl)phenyl)boronic acid] here?
Its IC50 is 65 nM.

same assay, conditions: 35 nM DCTPP1, 35 μM dCTP, 20 minutes at 22° C.; read-out: IC50 (nM), class

For `Cc1nc2c([N+](=O)[O-])c(Cl)c(Cl)cc2n1Cc1ccc(Cl)nc1` [Compound 2.2.43, 5,6-dichloro-1-((6-chloropyridin-3-yl)methyl)-2-methyl-4-nitro-1H-benzo[d]imidazole], which IC50 is on record?
Its IC50 is 100 to 500 nM.

For `O=[N+]([O-])c1c(Cl)c(Cl)cc2c1nc(C1CC1)n2Cc1ccc(B(O)O)cc1` [Compound 2.2.45, (4-((5,6-dichloro-2-cyclopropyl-4-nitro-1H-benzo[d]imidazol-1-yl)methyl)phenyl)boronic acid], which IC50 is on record?
Its IC50 is under 100 nM.

With `Cc1nc2c([N+](=O)[O-])c(Cl)c(Cl)cc2n1Cc1ccccc1B(O)O` [Compound 2.2.46, (2-((5,6-dichloro-2-methyl-4-nitro-1H-benzo[d]imidazol-1-yl)methyl)phenyl)boronic acid] as the compound, how does the IC50 read?
Its IC50 is under 100 nM.

With `Cc1nc2c([N+](=O)[O-])c(Cl)c(Cl)cc2n1Cc1cccc(B(O)O)c1` [Compound 2.2.47, (3-((5,6-dichloro-2-methyl-4-nitro-1H-benzo[d]imidazol-1-yl)methyl)phenyl)boronic acid] as the compound, how does the IC50 read?
The IC50 was under 100 nM.

Which IC50 does the source give for `Cc1nc2c([N+](=O)[O-])c(Cl)c(Cl)cc2n1CCc1ccc(B(O)O)cc1` [Compound 2.2.51, (4-(2-(5,6-dichloro-2-methyl-4-nitro-1H-benzo[d]imidazol-1-yl)ethyl)phenyl)boronic acid] here?
Its IC50 is 100 to 500 nM.

Which IC50 does the source give for `COc1cc(Cn2c(C)nc3c([N+](=O)[O-])c(C)c(C)cc32)cc(OC)c1OC` [Compound 2.2.52, 2,5,6-trimethyl-4-nitro-1-(3,4,5-trimethoxybenzyl)-1H-benzo[d]imidazole] here?
Its IC50 is at least 1000 nM.

With `Cc1cc2c(nc(C)n2Cc2cc3c(cc2Cl)OCO3)c([N+](=O)[O-])c1C` [Compound 2.2.53, 1-((6-chlorobenzo[d][1,3]dioxol-5-yl)methyl)-2,5,6-trimethyl-4-nitro-1H-benzo[d]imidazole] as the compound, how does the IC50 read?
Its IC50 is at least 1000 nM.

For `COc1ccc(Cn2c(C)nc3c([N+](=O)[O-])c(C)c(C)cc32)cc1` [Compound 2.2.54, 1-(4-methoxybenzyl)-2,5,6-trimethyl-4-nitro-1H-benzo[d]imidazole], which IC50 is on record?
The IC50 was under 100 nM.

With `Cc1cc2c(nc(C)n2Cc2ccc(Cl)cc2)c([N+](=O)[O-])c1C` [Compound 2.2.55, 1-(4-chlorobenzyl)-2,5,6-trimethyl-4-nitro-1H-benzo[d]imidazole] as the compound, how does the IC50 read?
Its IC50 is under 100 nM.

Which IC50 does the source give for `Cc1cc2c(nc(C)n2Cc2ccc(F)cc2)c([N+](=O)[O-])c1C` [Compound 2.2.56, 1-(4-fluorobenzyl)-2,5,6-trimethyl-4-nitro-1H-benzo[d]imidazole] here?
Its IC50 is 100 to 500 nM.

For `Cc1cc2c(nc(C)n2Cc2ccc(OC(F)(F)F)cc2)c([N+](=O)[O-])c1C` [Compound 2.2.57, 2,5,6-trimethyl-4-nitro-1-(4-(trifluoromethoxy)benzyl)-1H-benzo[d]imidazole], which IC50 is on record?
The IC50 was 100 to 500 nM.

For `Cc1cc2c(nc(C)n2C(C)c2ccccc2)c([N+](=O)[O-])c1C` (stereo not shown) [Compound 2.2.59, 2,5,6-trimethyl-4-nitro-1-(1-phenylethyl)-1H-benzo[d]imidazole], which IC50 is on record?
The IC50 was 100 to 500 nM.

With `Cc1cc2c(nc(C(F)(F)F)n2Cc2ccc(B(O)O)cc2)c([N+](=O)[O-])c1C` [Compound 2.2.61, (4-((5,6-dimethyl-4-nitro-2-(trifluoromethyl)-1H-benzo[d]imidazol-1-yl)methyl)phenyl)boronic acid] as the compound, how does the IC50 read?
Its IC50 is under 100 nM.

Which IC50 does the source give for `CC1(C)CC(C)(C)c2c1cc1c(cnn1Cc1ccc(B(O)O)cc1)c2[N+](=O)[O-]` [Compound 2.2.64] here?
Its IC50 is at least 1000 nM.

Which IC50 does the source give for `COc1ccc(Cn2c(Cc3ccccc3)nc3cccc([N+](=O)[O-])c32)cc1` [Compound 2.3.1, 2-benzyl-1-(4-methoxybenzyl)-7-nitro-1H-benzo[d]imidazole] here?
Its IC50 is at least 1000 nM.

Which IC50 does the source give for `COc1ccc(Cn2c(OC)nc3cccc([N+](=O)[O-])c32)cc1` [Compound 2.3.2, 2-methoxy-1-(4-methoxybenzyl)-7-nitro-1H-benzo[d]imidazole] here?
Its IC50 is at least 1000 nM.

With `COc1ccc(Cn2c(-c3ccccc3)nc3cccc([N+](=O)[O-])c32)cc1` [Compound 2.3.3, 1-(4-methoxybenzyl)-7-nitro-2-phenyl-1H-benzo[d]imidazole] as the compound, how does the IC50 read?
The IC50 was at least 1000 nM.

Which IC50 does the source give for `Cc1nc2cc(F)c(F)c([N+](=O)[O-])c2n1Cc1ccc(B(O)O)cc1` [Compound 2.3.4, (4-((5,6-difluoro-2-methyl-7-nitro-1H-benzo[d]imidazol-1-yl)methyl)phenyl)boronic acid] here?
The IC50 was 500 to 1000 nM.

tested on: human cancer cell lines; assay: not given; conditions: three types of human cancer cell lines; cited from earlier work

For `COc1cc(C(=O)n2ccc3c([N+](=O)[O-])c(OC)ccc32)cc(OC)c1OC` [(5-methoxy-4-nitroindol-1-yl)(3,4,5-trimethoxy-phenyl)methanone], which antiproliferative activity is on record?
The antiproliferative activity was “does not show any activity”.
